The values that follow come from patent US20240368178A1, “IMIDAZOCYCLIC COMPOUND AND APPLICATION THEREOF” (DONGBAO PURPLE STAR (HANGZHOU) BIOPHARMACEUTICAL CO., LTD., priority 2021, published 2024).

The nature of data set [1]: In vivo PK parameter testing in cynomolgus monkeys. Details: species or system cynomolgus monkey. The conditions noted are these: male cynomolgus monkeys. The procedure: Male SD rats and male cynomolgus monkeys were used as test animals, and the plasma concentration of the compound was determined and the pharmacokinetic behavior was evaluated after a single oral administration.
Two groups of healthy male cynomolgus monkeys (fasted) were administered by intravenous injection and oral gavage, each group with 2 monkeys. The vehicle was a 20% hydroxypropyl-β-cyclodextrin aqueous solution. The compound to be tested 002 was mixed with the vehicle, then vortexed, and sonicated to prepare clear solutions of 1.0 mg/mL and 2.0 mg/mL. The intravenous injection dose was 1.0 mg/kg, and the oral gavage dose was 2.0 mg/kg. The compound to be tested 003 was mixed with the vehicle, then vortexed, and sonicated to prepare clear solutions of 0.25 mg/mL and 10.0 mg/mL. The intravenous injection dose was 0.5 mg/kg, and the oral gavage dose was 10.0 mg/kg. After administration, the whole blood was collected at the time points of 0.083 hours, 0.25 hours, 0.5 hours, 1.0 hour, 2.0 hours, 4.0 hours, 8.0 hours, 12.0 hours, and 24.0 hours. Plasma was prepared from the whole blood and analyzed for drug concentration by LC-MS/MS. Parameter meaning: Cmax is the maximum plasma concentration; AUC is the exposure; T1/2 is the half-life; Vd is the apparent volume of distribution; Cl is the clearance rate; F % is the oral bioavailability.

In a further data set the test system is human hepatocytes. Nature of the data set: HMS CLint (liver) hepatocyte metabolic stability, human. Type of data set: in vitro ADME. The procedure: Experimental purpose: to test the metabolic stability of the test sample in human and rat liver cells.
• (1) test compound (10 mM), reference substance: 7-ethoxycoumarin (30 mM), 7-hydroxycoumarin (reference substance, 30 mM); • mouse hepatocytes with cell viability of 73.8%, supplier Cat No.: BioreclamationlVTM005052; • rat hepatocytes with cell viability of 78.3%, supplier Cat No.: BioreclamationlVTM00005-T; • canine hepatocytes with cell viability of 80.2%, supplier Cat No.: BioreclamationlVTM00205; • monkey liver cells with cell viability of 80.9%, supplier Cat No.: RILD HP—SXH-02M; • human hepatocytes with cell viability of 94.6%, supplier Cat No.: Bioreclamation IVTX008001. • (2) Buffer system:
Thawing medium: Williams' medium E containing 5% fetal bovine serum, 30% Percoll solution, and other auxiliary materials.
Incubation medium: Williams' medium E (without phenol red) containing 2 mM L-glutamine and 25 mM 4-(2-hydroxyethyl)-1-piperazineethanesulfonic acid.
Termination solution: acetonitrile containing 200 ng/mL tolbutamide and labetalol as internal standard. […]
The residual rates of the test compound and the control compound were determined using the following formula: […]
The elimination rate constant (k) of the test compound and the control compound in hepatocytes was calculated by plotting the logarithm of the residual rate against time. […]

Molecules are shown by their SMILES.

In data set [1] (IV 1.0 mg/kg, PO 2.0 mg/kg), `C[C@]1(c2ccc(Cl)cn2)Oc2cccc(C3CCN(Cc4nc5sc(C(=O)O)cc5n4C[C@@H]4CCO4)CC3)c2O1` (single isomer, unassigned) [Compound 002] yielded a F % of 35.3%. In addition, in data set [1] (intravenous 1.0 mg/kg), the Cl came to 0.505 mL/min/kg and the distribution volume (Vd) is 0.155 L/kg. Also, in data set [1] (oral gavage 2.0 mg/kg), the “AUC (PO)” value was 42.966 µM·h and the “T1/2 (PO)” value is listed as 11.3 h. For the same compound, in the data set on human hepatocytes, the “HMS Human” value was <17.8 mL/min/kg.

In data set [1] (IV 0.5 mg/kg, PO 10.0 mg/kg), `C[C@@]1(c2ccc(Cl)cn2)Oc2cccc(N3CCN(Cc4nc5sc(C(=O)O)cc5n4C[C@H]4CCO4)CC3)c2O1` [Compound 003] had a F % of 23.6%. In data set [1] (intravenous 0.5 mg/kg), this compound had a Cl of 2.85 mL/min/kg and a Vd of 0.489 L/kg. Moreover, in data set [1] (oral gavage 10.0 mg/kg), the “AUC (PO)” value amounted to 10.716 µM·h and the “T1/2 (PO)” value is reported as 8.52 h. For the same compound, in the data set with human hepatocytes, the “HMS Human” value was 19.4 mL/min/kg.

Broadly, the Vd is the apparent volume that relates the amount in the body to the concentration in plasma or blood.
